Ends that are not written are not given here. Peptide text beside a SMILES is read from it. * marks the point of attachment. Biotin = O=C1N[C@H]2[C@H](CS[C@H]2CCCCC(=O)*)N1

Experimental findings from US20050282743A1, “Molecular interactions in cells” (Arbor Vita Corporation, priority 2001, published 2005) are described below.

What all share (type): binding
Test [1] concerns the target T1, PDZ protein (GST-PDZ fusion) (Homo sapiens, UniProt O15018).
T1 construct: made in house; host or cells: E. coli (DH5alpha, BL21 or JM109)
Description: G' assay (10 uM PL peptide), results of TABLE 7 and TABLE 12. Summed up:
(§1)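 Biotinylated PL peptides at 10 uM (vs 20 uM in G^0 assay) bound to GST-PDZ fusions; PDZ protein at 5 ug/ml unless another concentration listed. Bound peptide read as A450 nm, classified 0–5 (0 = A450 0; 5 = A450 >4 repeated).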

Test [2] deals with T2, PDZ protein (GST-PDZ fusion) (Homo sapiens, UniProt Q8NI35).
T2 construct: made in house; host or cells: E. coli (DH5alpha, BL21 or JM109)
The description is as above. The conditions noted are these: PDZ INADL, PDZ Domain 8. Put shortly:
as §1

Test [3] has as its target T3, PDZ protein (GST-PDZ fusion) (Homo sapiens, UniProt Q9NZN5).
T3 construct: made in house; host or cells: E. coli (DH5alpha, BL21 or JM109)
The test is described as above. The conditions noted are these: PDZ KIAA0382, PDZ Domain 1. Put shortly:
as §1

Test [4] concerns the target T4, PDZ protein (GST-PDZ fusion) (Homo sapiens, UniProt Q14160).
T4 construct: made in house; host or cells: E. coli (DH5alpha, BL21 or JM109)
The description is as above. The note with it: PDZ KIAA0147, PDZ Domain 1. Summed up: as §1

Test [5] has as its target T5, PDZ protein (GST-PDZ fusion) (Homo sapiens, UniProt Q86UL8).
T5 construct: made in house; host or cells: E. coli (DH5alpha, BL21 or JM109)
The test is described as above. Put shortly:
as §1

Test [6] addresses T6, PDZ protein (GST-PDZ fusion) (Homo sapiens, UniProt Q13796).
T6 construct: made in house; host or cells: E. coli (DH5alpha, BL21 or JM109)
The description is as above. The note with it: PDZ hAPXL, PDZ Domain 1. Summed up: as §1

For test [7], the target named is T7, PDZ protein (GST-PDZ fusion) (Homo sapiens, UniProt O14907).
T7 construct: made in house; host or cells: E. coli (DH5alpha, BL21 or JM109)
T7 sequence (O14907 1-124): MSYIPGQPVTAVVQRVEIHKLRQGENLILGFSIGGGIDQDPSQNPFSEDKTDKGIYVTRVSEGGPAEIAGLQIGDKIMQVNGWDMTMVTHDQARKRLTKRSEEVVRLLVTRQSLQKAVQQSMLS
The test is described as above. The note with it: PDZ TIP1, PDZ Domain 1. Summed up:
as §1

Test [8] concerns the target T8, PDZ protein (GST-PDZ fusion) (Homo sapiens, UniProt Q12959).
T8 construct: made in house; host or cells: E. coli (DH5alpha, BL21 or JM109)
The test is described as above. Summed up:
as §1

Test [9] addresses T9, PDZ protein (GST-PDZ fusion) (Homo sapiens, UniProt P78352).
T9 construct: made in house; host or cells: E. coli (DH5alpha, BL21 or JM109)
The test is described as above. Put shortly:
as §1

Test [10] deals with PDZ-domain polypeptide (GST/PDZ fusion protein). The experiment in a line: Apparent affinity (Kd) by titration of PL peptide in the G assay. The conditions noted are these: PDZ BAI-1, PDZ Domain 2; read-out: Peptide Optimal Conc (Kd by titration of the PL peptide). Put shortly:
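A fixed concentration of GST/PDZ fusion protein, 5 ug/ml by default, was mixed in solution with increasing labeled PL peptide (e.g. 0.1 uM-1 mM). Reaction times ranged from 10 minutes to 2 days at 4-37° C. Complexes were separated from free peptide and detected via the label as in the G assay, apparent affinity coming from the saturating concentration.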

[11] abbreviates: PDZ Atrophin-1 Inter. Prot., PDZ Domain 5.

T1 sequence (O15018 whole entry, the tested form may be a part): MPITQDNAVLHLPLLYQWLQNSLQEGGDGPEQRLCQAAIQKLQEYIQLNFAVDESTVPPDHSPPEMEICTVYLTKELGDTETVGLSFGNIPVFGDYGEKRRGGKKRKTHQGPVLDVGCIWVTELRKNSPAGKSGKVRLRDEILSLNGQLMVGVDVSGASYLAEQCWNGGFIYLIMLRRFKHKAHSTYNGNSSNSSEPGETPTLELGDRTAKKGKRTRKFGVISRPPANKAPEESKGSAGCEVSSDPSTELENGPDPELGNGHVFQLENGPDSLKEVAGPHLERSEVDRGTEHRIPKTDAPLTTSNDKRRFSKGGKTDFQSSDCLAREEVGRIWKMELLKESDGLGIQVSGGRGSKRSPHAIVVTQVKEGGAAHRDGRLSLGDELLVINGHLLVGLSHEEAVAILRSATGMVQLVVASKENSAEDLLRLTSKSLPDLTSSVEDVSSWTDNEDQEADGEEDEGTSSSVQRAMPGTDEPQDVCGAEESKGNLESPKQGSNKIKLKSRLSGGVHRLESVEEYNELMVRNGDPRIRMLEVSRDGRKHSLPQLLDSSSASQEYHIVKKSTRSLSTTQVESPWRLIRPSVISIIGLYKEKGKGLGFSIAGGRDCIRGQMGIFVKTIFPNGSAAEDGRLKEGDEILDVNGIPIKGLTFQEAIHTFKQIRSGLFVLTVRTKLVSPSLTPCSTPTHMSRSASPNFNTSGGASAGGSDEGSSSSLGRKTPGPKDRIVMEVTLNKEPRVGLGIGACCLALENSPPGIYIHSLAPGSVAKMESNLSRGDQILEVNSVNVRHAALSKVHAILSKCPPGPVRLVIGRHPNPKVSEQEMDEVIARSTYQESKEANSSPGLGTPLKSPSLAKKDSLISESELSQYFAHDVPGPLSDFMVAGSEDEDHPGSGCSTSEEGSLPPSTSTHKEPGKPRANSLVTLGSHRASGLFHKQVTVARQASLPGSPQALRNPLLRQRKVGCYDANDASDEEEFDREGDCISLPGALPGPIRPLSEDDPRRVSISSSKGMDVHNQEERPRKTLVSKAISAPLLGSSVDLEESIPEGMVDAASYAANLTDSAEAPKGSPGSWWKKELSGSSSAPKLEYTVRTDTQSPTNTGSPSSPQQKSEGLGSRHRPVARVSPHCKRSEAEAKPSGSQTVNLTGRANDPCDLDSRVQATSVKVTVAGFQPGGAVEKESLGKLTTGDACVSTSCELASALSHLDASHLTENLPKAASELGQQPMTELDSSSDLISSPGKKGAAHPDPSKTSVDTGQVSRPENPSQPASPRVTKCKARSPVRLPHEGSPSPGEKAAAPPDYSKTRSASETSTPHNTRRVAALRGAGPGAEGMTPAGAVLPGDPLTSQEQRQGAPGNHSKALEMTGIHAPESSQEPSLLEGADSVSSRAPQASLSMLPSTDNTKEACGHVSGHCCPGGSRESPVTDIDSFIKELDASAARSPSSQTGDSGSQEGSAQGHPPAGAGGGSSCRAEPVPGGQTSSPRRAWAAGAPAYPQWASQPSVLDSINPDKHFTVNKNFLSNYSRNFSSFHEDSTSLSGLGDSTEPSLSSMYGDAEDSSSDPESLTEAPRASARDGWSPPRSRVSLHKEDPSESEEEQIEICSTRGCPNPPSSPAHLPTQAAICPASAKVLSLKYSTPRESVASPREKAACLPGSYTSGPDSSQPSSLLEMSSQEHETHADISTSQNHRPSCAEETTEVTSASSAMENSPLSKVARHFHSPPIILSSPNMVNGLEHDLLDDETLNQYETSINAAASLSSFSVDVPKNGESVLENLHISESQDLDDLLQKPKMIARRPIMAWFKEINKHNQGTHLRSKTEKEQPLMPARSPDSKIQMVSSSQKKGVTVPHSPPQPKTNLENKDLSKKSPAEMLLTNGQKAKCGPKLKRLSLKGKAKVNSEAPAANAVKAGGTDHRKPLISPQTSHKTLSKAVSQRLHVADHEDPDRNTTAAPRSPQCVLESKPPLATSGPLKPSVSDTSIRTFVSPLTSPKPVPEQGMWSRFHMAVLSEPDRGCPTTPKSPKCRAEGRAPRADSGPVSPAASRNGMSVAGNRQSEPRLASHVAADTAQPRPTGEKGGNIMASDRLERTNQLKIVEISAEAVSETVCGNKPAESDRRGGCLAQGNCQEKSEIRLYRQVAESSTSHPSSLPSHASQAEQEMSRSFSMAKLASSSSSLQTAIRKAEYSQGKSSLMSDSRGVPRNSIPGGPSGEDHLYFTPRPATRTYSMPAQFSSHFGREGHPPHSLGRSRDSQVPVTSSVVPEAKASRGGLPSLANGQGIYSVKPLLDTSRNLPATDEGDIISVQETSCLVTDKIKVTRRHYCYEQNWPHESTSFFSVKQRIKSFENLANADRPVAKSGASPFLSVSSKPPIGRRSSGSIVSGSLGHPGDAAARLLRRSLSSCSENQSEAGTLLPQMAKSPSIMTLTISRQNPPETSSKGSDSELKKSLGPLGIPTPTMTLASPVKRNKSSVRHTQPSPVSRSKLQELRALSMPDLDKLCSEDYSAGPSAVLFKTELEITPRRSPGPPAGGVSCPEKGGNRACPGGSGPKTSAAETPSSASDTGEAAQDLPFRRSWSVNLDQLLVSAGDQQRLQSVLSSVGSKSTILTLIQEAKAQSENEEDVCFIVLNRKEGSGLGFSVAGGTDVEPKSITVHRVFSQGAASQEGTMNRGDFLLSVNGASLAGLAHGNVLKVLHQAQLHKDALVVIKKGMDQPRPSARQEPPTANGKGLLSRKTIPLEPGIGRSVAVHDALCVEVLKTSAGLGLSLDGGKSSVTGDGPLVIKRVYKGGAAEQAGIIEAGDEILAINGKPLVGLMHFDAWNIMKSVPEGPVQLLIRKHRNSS
T3 sequence (Q9NZN5 whole entry, the tested form may be a part): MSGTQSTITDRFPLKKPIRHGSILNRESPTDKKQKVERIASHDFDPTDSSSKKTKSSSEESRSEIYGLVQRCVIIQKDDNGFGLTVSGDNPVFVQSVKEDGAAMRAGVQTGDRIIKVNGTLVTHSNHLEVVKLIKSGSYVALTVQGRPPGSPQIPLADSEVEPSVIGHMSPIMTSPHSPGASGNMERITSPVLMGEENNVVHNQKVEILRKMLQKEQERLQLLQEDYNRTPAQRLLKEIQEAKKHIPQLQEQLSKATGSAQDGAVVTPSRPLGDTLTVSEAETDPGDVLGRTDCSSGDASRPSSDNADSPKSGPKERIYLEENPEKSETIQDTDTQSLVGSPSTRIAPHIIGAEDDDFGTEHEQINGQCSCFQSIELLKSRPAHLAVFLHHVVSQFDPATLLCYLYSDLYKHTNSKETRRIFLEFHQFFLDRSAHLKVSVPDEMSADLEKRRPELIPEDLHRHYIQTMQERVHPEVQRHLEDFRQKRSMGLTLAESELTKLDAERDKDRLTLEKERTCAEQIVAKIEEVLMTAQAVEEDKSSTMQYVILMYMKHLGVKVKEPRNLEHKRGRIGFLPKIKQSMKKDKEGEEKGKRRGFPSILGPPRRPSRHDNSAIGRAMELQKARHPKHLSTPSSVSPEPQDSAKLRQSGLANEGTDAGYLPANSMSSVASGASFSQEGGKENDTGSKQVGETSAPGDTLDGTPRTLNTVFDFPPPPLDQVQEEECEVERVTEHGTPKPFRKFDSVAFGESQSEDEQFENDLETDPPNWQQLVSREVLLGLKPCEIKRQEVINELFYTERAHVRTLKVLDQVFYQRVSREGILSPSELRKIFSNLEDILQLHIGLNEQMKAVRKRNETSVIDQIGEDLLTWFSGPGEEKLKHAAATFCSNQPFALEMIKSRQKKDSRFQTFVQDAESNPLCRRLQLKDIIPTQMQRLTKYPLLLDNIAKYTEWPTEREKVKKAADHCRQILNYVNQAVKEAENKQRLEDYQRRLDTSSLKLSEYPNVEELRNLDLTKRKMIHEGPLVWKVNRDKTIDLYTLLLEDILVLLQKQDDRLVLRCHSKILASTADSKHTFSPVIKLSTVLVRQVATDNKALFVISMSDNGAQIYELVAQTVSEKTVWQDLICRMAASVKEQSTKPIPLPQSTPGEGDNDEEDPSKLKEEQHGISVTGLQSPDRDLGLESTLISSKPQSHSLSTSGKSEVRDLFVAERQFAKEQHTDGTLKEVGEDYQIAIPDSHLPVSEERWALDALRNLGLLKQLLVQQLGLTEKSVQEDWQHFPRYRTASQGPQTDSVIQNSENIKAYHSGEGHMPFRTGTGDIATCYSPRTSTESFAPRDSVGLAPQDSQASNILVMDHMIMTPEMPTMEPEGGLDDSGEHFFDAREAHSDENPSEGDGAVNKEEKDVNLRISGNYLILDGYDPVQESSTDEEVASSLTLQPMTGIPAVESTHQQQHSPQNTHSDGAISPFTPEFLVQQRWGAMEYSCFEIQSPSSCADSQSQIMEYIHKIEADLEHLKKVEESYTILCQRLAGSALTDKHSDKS
T9 sequence (P78352 whole entry, the tested form may be a part): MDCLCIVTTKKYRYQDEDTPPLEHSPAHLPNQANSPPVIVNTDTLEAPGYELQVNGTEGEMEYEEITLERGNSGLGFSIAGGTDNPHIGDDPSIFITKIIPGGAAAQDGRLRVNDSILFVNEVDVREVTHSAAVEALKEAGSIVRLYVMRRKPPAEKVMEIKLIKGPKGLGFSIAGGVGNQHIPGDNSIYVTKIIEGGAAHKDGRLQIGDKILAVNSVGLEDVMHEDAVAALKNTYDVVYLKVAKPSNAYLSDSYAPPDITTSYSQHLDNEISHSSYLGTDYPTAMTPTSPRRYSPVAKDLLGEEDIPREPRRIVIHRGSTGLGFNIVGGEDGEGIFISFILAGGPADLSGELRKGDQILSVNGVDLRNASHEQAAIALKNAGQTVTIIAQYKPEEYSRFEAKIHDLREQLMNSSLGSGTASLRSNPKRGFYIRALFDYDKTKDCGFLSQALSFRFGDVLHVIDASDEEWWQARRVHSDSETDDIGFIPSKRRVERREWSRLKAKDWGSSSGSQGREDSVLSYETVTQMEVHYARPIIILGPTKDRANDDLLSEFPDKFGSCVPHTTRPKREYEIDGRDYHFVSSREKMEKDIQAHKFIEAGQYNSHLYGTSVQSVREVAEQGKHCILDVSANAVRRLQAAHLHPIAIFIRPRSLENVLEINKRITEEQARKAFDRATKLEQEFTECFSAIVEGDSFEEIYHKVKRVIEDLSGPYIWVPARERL

As to `CC[C@H](C)[C@H](NC(=O)[C@H](Cc1ccc(O)cc1)NC(=O)[C@@H](NC(=O)[C@@H]1CCCN1C(=O)[C@H](CCC(N)=O)NC(=O)[C@H](CCC(=O)O)NC(=O)[C@H](CCC(N)=O)NC(=O)[C@H](C)NC(=O)[C@@H](NC(=O)[C@H](CC(C)C)NC(=O)[C@H](CC(C)C)NC(=O)[C@H](CCCNC(=N)N)NC(=O)[C@H](Cc1ccc(O)cc1)NC(=O)[C@H](CCSC)NC(=O)[C@H](C)NC(=O)[C@H](C)NC(=O)[C@@H]1CCCN1C(=O)[C@H](CCSC)NC(=O)[C@@H](NC(=O)[C@H](CCCCN)NC(=O)CCCC[C@@H]1SC[C@@H]2NC(=O)N[C@@H]21)[C@@H](C)O)[C@@H](C)O)C(C)C)C(=O)O` [MINT-1] (Biotin-KTMPAAMYRLLTAQEQPVYI-OH; C-terminus assumed), the Classification was 1 (A450 nm 0-1) in [1] (PDZ AIPC, PDZ Domain 1); 4 (A450 nm 3-4) in [1] (PDZ KIAA0300, PDZ Domain 1); 1 (A450 nm 0-1) in test [2]; 1 (A450 nm 0-1) in [3].
For “LNETTETQRTLLNGDLQTSI (Biotin-LNETTETQRTLLNGDLQTSI) [SSTR2 (somatostatin recepor 2)]”, in test [3], the Classification is 1 (A450 nm 0-1).
Consider “QATSRNGHSARQHVVADTEL (Biotin-QATSRNGHSARQHVVADTEL) [CD34]”, for which the Classification in [4], in test [5] (setting [11]) and in test [3] was 1 (A450 nm 0-1) each time.
Turning to “VHDAESSDEDGYDWGPATDL (Biotin-VHDAESSDEDGYDWGPATDL) [zona occludens 3 (ZO-3)]”, the Classification is on record as 1 (A450 nm 0-1) in test [1] (PDZ AIPC, PDZ Domain 1); 2 (A450 nm 1-2) in [3]; 2 (A450 nm 1-2) in test [6].
For the compound `CC(C)C[C@H](NC(=O)[C@H](C)NC(=O)[C@H](CO)NC(=O)CNC(=O)[C@@H](NC(=O)CCCC[C@@H]1SC[C@@H]2NC(=O)N[C@@H]21)[C@@H](C)O)C(=O)N[C@@H](CCC(N)=O)C(=O)N[C@@H](C)C(=O)N[C@@H](Cc1c[nH]c2ccccc12)C(=O)N[C@@H](CCCNC(=N)N)C(=O)N[C@@H](Cc1c[nH]cn1)C(=O)N[C@H](C(=O)N[C@@H](CO)C(=O)N[C@@H](CCCNC(=N)N)C(=O)N[C@@H](CCC(N)=O)C(=O)N[C@@H](C)C(=O)N[C@H](C(=O)N[C@@H](CCC(=O)O)C(=O)N[C@@H](CO)C(=O)N[C@H](C(=O)N[C@H](C(=O)O)C(C)C)[C@@H](C)O)[C@@H](C)O)[C@@H](C)O` [HPV E6 #66 (modified)] (Biotin-TGSALQAWRHTSRQATESTV-OH; C-terminus assumed), the Classification is on record as 2 (A450 nm 1-2) in test [4]; 1 (A450 nm 0-1) in test [5] (setting [11]); 5 (A450 nm of 4 more than 2× repeated) in test [5] (PDZ atrophin-1 interacting Protein (Atrophin-1 Inter. Prot.), PDZ Domain 1); 1 (A450 nm 0-1) in test [1] (PDZ AIPC, PDZ Domain 1); 1 (A450 nm 0-1) in test [2]; 5 (A450 nm of 4 more than 2× repeated) in [7]. In addition, the Classification in test [8] (PDZ DLG1, PDZ Domain 1) was 4 (A450 nm 3-4); in test [8] (PDZ DLG1, PDZ Domain 1, 2), 5 (A450 nm of 4 more than 2× repeated); in test [8] (PDZ DLG1, PDZ Domain 2), 5 (A450 nm of 4 more than 2× repeated); in test [6], 1 (A450 nm 0-1); in test [9] (PDZ PSD95, PDZ Domain 1), 4 (A450 nm 3-4); in [9] (PDZ PSD95, PDZ Domain 1, 2, 3), 5 (A450 nm of 4 more than 2× repeated). Also, the Classification in test [9] (PDZ PSD95, PDZ Domain 3) was 1 (A450 nm 0-1). In test [10], the Kd came to 3 µM.
For “KTMPAAMFRLLTGQETPLYI (Biotin-KTMPAAMFRLLTGQETPLYI) [MINT-2]”, the Classification was 1 (A450 nm 0-1) in test [1] (PDZ AIPC, PDZ Domain 1); 3 (A450 nm 2-3) in [1] (PDZ KIAA0300, PDZ Domain 1); 1 (A450 nm 0-1) in test [3].
On to “APC—adenomatous polyposis coli protein (ESSGTQSPKRHSGSYLVTSV)”, for which the Classification in test [4] is 1 (A450 nm 0-1); in test [2] it was 2 (A450 nm 1-2); in test [7], 3 (A450 nm 2-3); in test [3], 1 (A450 nm 0-1); in [8] (PDZ DLG1, PDZ Domain 1, 2), 5 (A450 nm of 4 more than 2× repeated); in test [9] (PDZ PSD95, PDZ Domain 1, 2, 3), 5 (A450 nm of 4 more than 2× repeated).
